The text below walks through data of US8648068B2, “Heterocycloalkyl-containing thienopyrimidines for pharmaceutical compositions” (Boehringer Ingelheim International GmbH, priority 2010, dated 2014).

This assay addresses T1, human Mnk2a (Homo sapiens, UniProt Q9HBH9).
T1 construct: made in house; host or cells: E. coli BL21 (vector pGEX-4T1)
In words: Mnk2a in vitro kinase assay (indirect fluorescence polarization). Format: biochemical. As to conditions: GST-Mnk2a pre-activated with ERK2, 20 μM ATP, 30 μM substrate peptide; read-out: MNK2 IC50. Summed up:
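Indirect competitive fluorescence polarization: kinase-generated phospho-product displaces a fluorophore-labelled phospho-peptide from a phospho-specific antibody. Enzyme is N-terminal GST-Mnk2a from E. coli, activated with pre-activated ERK2 and 50 μM ATP; substrate is an amidated 12-mer peptide around eIF4E Ser209.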
For orientation: Fluorescence polarisation rises when a labelled molecule tumbles more slowly, as on binding a larger partner.

T1 sequence (Q9HBH9 whole entry): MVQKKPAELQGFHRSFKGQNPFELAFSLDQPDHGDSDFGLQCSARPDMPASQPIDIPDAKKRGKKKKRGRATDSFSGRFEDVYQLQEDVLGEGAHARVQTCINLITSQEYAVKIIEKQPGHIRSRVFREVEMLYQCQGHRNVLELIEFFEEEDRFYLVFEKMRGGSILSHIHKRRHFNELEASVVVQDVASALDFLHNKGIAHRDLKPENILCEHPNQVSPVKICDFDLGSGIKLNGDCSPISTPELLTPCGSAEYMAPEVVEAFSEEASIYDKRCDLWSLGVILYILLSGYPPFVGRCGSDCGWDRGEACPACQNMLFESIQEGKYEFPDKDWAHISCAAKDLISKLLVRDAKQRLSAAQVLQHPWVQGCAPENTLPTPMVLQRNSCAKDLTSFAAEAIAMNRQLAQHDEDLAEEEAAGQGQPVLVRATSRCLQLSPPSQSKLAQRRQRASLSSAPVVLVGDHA

As a reminder, the IC50 is the concentration needed to halve the response being measured. Turning to `Cc1c(C(=O)N[C@@H](C)C(=O)O)sc2ncnc(Nc3ccc(F)cc3OC3CCOCC3)c12` [Example 148], the IC50 stood at 0.068 µM.

In the case of `Cc1c(C(=O)NCC2CCOC2)sc2ncnc(Nc3ccc(F)cc3OC3CCCNC3)c12` (stereo not drawn) [Example 24], the half-inhibitory concentration (IC50) stood at 0.062 µM.

For `CNCCNC(=O)c1sc2ncnc(Nc3ccc(F)cc3OC3CCOCC3)c2c1C` [Example 146], the half-inhibitory concentration (IC50) is 0.07 µM.

Regarding `Cc1c(C(=O)N[C@@H]2CC[C@H](N)C2)sc2ncnc(Nc3ccc(F)cc3OC3CCOCC3)c12` [Example 142], the IC50 is 0.038 µM.

Take `Cc1c(C(=O)NCCc2cccnc2)sc2ncnc(Nc3ccc(F)cc3OC3CCOCC3)c12` [Example 207]: the half-maximal inhibitory concentration (IC50) turned out to be 0.041 µM.

As for `Cc1c(C(N)=O)sc2ncnc(Nc3ccc(F)cc3O[C@H]3CCCN(CC(F)(F)F)C3)c12` [Example 5], the half-inhibitory concentration (IC50) stood at 0.11 µM.

`Cc1c(C(=O)NC2CCN(C)CC2)sc2ncnc(Nc3ccc(F)cc3O[C@H]3CCOC3)c12` [Example 271, 4-{4-Fluoro-2-[(S)-(tetrahydro-furan-3-yl)oxy]-phenylamino}-5-methyl-thieno[2,3-d]pyrimidine-6-carboxylic acid (1-methyl-piperidin-4-yl)-amide]: the half-inhibitory concentration (IC50) is 0.04 µM.

Turning to `CSCCCNC(=O)c1sc2ncnc(Nc3cccnc3OC3CCOCC3)c2c1C` [Example 279], the IC50 is 0.077 µM.

Regarding `Cc1c(C(=O)NC2CCCC(O)C2)sc2ncnc(Nc3ccc(F)cc3OC3CCOCC3)c12` (stereo not drawn) [Example 192], the half-inhibitory concentration (IC50) is 0.042 µM.

For the compound `CSCCCNC(=O)c1sc2ncnc(Nc3ccc(F)cc3OC3CCOCC3)c2c1C` [Example 237], the half-maximal inhibitory concentration (IC50) came to 0.036 µM.

`COCCONC(=O)c1sc2ncnc(Nc3ccc(F)cc3OC3CCOCC3)c2c1C` [Example 245]: the IC50 stood at 0.039 µM.

On to `Cc1c(C(=O)NCC#N)sc2ncnc(Nc3cccnc3O[C@@H]3CCCOC3)c12` [Example 266], for which the concentration for half-maximal inhibition (IC50) stood at 0.025 µM.

For the compound `Cc1c(C(N)=O)sc2ncnc(Nc3ccc(F)cc3O[C@H]3CCCN(C)C3)c12` [Example 8], the IC50 is 0.08 µM.

Regarding `Cc1c(C(N)=O)sc2ncnc(Nc3ccc(F)cc3O[C@@H]3CCCN(Cc4nccs4)C3)c12` [Example 78], the half-inhibitory concentration (IC50) is 0.028 µM.

On to `Cc1c(C(=O)N[C@H]2CCC[C@@H]2O)sc2ncnc(Nc3cccnc3OC3CCOCC3)c12` [Compound 278, 5-Methyl-4-[2-(tetrahydro-pyran-4-yloxy)-pyridin-3-ylamino]-thieno[2,3-d]pyrimidine-6-carboxylic acid ((1S,2S)-2-hydroxy-cyclopentyl)-amide], for which the IC50 came out at 0.079 µM.

As to `Cc1c(C(=O)NCc2cccs2)sc2ncnc(Nc3ccc(F)cc3OC3CCCNC3)c12` (stereo not drawn) [Example 30], the IC50 was 0.034 µM.

Regarding `Cc1c(C(=O)NCC#CCN(C)C)sc2ncnc(Nc3ccc(F)cc3O[C@@H]3CCOC3)c12` [Example 274], the 50% inhibitory concentration (IC50) came out at 0.019 µM.

Regarding `Cc1c(C(=O)NCc2ccc(Cl)c(F)c2)sc2ncnc(Nc3ccc(F)cc3OC3CCCNC3)c12` (stereo not drawn) [Example 59], the IC50 came to 0.048 µM.

For `Cc1c(C(=O)NCC(C)(C)CO)sc2ncnc(Nc3ccc(F)cc3OC3CCOCC3)c12` [Example 216], the IC50 is 0.054 µM.

On to `Cc1c(C(=O)NCc2cccc(F)c2)sc2ncnc(Nc3ccc(F)cc3OC3CCCNC3)c12` (stereo not drawn) [Example 35], for which the IC50 was 0.053 µM.

In the case of `Cc1c(C(=O)NCCCc2ccncc2)sc2ncnc(Nc3ccc(F)cc3OC3CCCNC3)c12` (stereo not drawn) [Example 56], the IC50 came to 0.049 µM.

For the compound `Cc1c(C(=O)NCC2CCC(=O)N2)sc2ncnc(Nc3ccc(F)cc3OC3CCOCC3)c12` (stereo not drawn) [Example 150], the IC50 amounted to 0.07 µM.

Regarding `Cc1c(C(=O)NCCCN2CC(F)(F)C2)sc2ncnc(Nc3ccc(F)cc3OC3CCOCC3)c12` [Example 125], the concentration for half-maximal inhibition (IC50) was 0.025 µM.

`COCC(C)NC(=O)c1sc2ncnc(Nc3ccc(F)cc3OC3CCOCC3)c2c1C` (stereo not drawn) [Example 163]: the IC50 was found to be 0.06 µM.

As to `Cc1c(C(=O)Nc2ccn(C)c(=O)n2)sc2ncnc(Nc3ccc(F)cc3OC3CCOCC3)c12` [Example 247], the IC50 is 0.044 µM.

Consider `Cc1c(C(=O)NC2CC2)sc2ncnc(Nc3ccc(F)cc3O[C@@H]3CCOC3)c12` [Example 107], for which the IC50 is 0.026 µM.

For the compound `Cc1c(C(=O)NCC(C)(C)C)sc2ncnc(Nc3ccc(F)cc3OC3CCCNC3)c12` (stereo not drawn) [Example 21], the IC50 was found to be 0.076 µM.

As for `Cc1c(C(=O)N[C@H]2CCN(C(=O)OC(C)(C)C)C[C@@H]2O)sc2ncnc(Nc3ccc(F)cc3OC3CCOCC3)c12` [Example 241], the half-inhibitory concentration (IC50) stood at 0.036 µM.

With `Cc1c(C(=O)N[C@H]2CC[C@@](C)(O)CC2)sc2ncnc(Nc3ccc(F)cc3OC3CCOCC3)c12` [Example 170], the IC50 was 0.125 µM.

With `CCOCCCNC(=O)c1sc2ncnc(Nc3ccc(F)cc3OC3CCOCC3)c2c1C` [Example 218], the IC50 turned out to be 0.033 µM.

With `Cc1c(C(=O)N[C@H](C)C(=O)O)sc2ncnc(Nc3ccc(F)cc3OC3CCOCC3)c12` [Example 147], the IC50 amounted to 0.015 µM.

As for `Cc1c(C(=O)NCc2ccc(OC(C)C)cc2)sc2ncnc(Nc3ccc(F)cc3OC3CCCNC3)c12` (stereo not drawn) [Example 63], the half-inhibitory concentration (IC50) was 0.043 µM.

Consider `COCCN1CCC[C@@H](Oc2cc(F)ccc2Nc2ncnc3sc(C(N)=O)c(C)c23)C1` [Example 75], for which the half-maximal inhibitory concentration (IC50) was 0.022 µM.

`CCC(CC)CNC(=O)c1sc2ncnc(Nc3ccc(F)cc3OC3CCCNC3)c2c1C` (stereo not drawn) [Example 26]: the 50% inhibitory concentration (IC50) is 0.06 µM.

With `Cc1c(C(=O)NCC(=O)O)sc2ncnc(Nc3ccc(F)cc3OC3CCOCC3)c12` [Example 149], the IC50 turned out to be 0.037 µM.

On to `COC(=O)c1sc2ncnc(Nc3ccc(F)cc3O[C@H]3C[C@H]4COC(=O)N4C3)c2c1C` [Example 114, 4-[4-Fluoro-2-((6S,7aS)-3-oxo-tetrahydro-pyrrolo[1,2-d]oxazol-6-yloxy)-phenylamino]-5-methyl-thieno[2,3-d]pyrimidine-6-carboxylic acid methyl ester], for which the concentration for half-maximal inhibition (IC50) came to 0.55 µM.

`Cc1c(C(=O)NCCO)sc2ncnc(Nc3ccc(F)cc3OC3CCOCC3)c12` [Example 211]: the concentration for half-maximal inhibition (IC50) is 0.029 µM.

With `Cc1c(C(=O)NCC2CCCN(C)C2)sc2ncnc(Nc3ccc(F)cc3OC3CCOCC3)c12` (stereo not drawn) [Example 123], the IC50 turned out to be 0.038 µM.

With `Cc1c(C(N)=O)sc2ncnc(Nc3cccnc3O[C@H]3CCCNC3)c12` [Example 69, 5-Methyl-4-[2-((S)-piperidin-3-yloxy)-pyridin-3-ylamino]thieno[2,3-d]pyrimidine-6-carboxylic acid amide], the IC50 stood at 0.019 µM.

`COCCNC(=O)c1sc2ncnc(Nc3ccc(F)cc3O[C@H]3CCCNC3)c2c1C` [Example 13]: the IC50 came out at 0.059 µM.

Regarding `Cc1c(C(=O)NS(C)(=O)=O)sc2ncnc(Nc3ccc(F)cc3O[C@@H]3CCOC3)c12` [Example 101, N-(4-{4-Fluoro-2-[(R)-(tetrahydro-furan-3-yl)oxy]-phenylamino}-5-methyl-thieno[2,3-d]pyrimidine-6-carbonyl)-methanesulfonamide], the IC50 was found to be 0.011 µM.

`Cc1c(C(=O)NCCS(C)(=O)=O)sc2ncnc(Nc3ccc(F)cc3OC3CCOCC3)c12` [Example 180]: the IC50 was 0.033 µM.

For `Cc1c(C(=O)NCCCN2CCCC2=O)sc2ncnc(Nc3ccc(F)cc3OC3CCOCC3)c12` [Example 131], the IC50 was 0.035 µM.

As for `Cc1c(C(=O)NCC(N)=O)sc2ncnc(Nc3ccc(F)cc3OC3CCOCC3)c12` [Example 128], the concentration for half-maximal inhibition (IC50) amounted to 0.041 µM.

`Cc1c(C(=O)NCc2ccncc2)sc2ncnc(Nc3ccc(F)cc3OC3CCOCC3)c12` [Example 221]: the IC50 stood at 0.038 µM.

As for `Cc1c(C(=O)N[C@H]2CCCC[C@@H]2O)sc2ncnc(Nc3ccc(F)cc3OC3CCOCC3)c12` [Example 243], the IC50 is 0.049 µM.

As to `Cc1c(C(=O)NCC[S+](C)[O-])sc2ncnc(Nc3cccnc3OC3CCOCC3)c12` (stereo not drawn) [Example 280], the IC50 is 0.04 µM.

For `Cc1c(C(=O)NCC2(C)CCN(C)C2)sc2ncnc(Nc3ccc(F)cc3OC3CCOCC3)c12` (stereo not drawn) [Example 204], the IC50 is 0.066 µM.

Take `Cc1c(C(=O)NO)sc2ncnc(Nc3ccc(F)cc3OC3CCOCC3)c12` [Example 244]: the IC50 was 0.019 µM.

With `Cc1c(C(=O)NCCCN(C)C)sc2ncnc(Nc3ccc(F)cc3O[C@@H]3CCCOC3)c12` [Example 88, 4-{4-Fluoro-2-[(R)-(tetrahydro-pyran-3-yl)oxy]-phenylamino}-5-methyl-thieno[2,3-d]pyrimidine-6-carboxylic acid (3-dimethylamino-propyl)-amide], the IC50 amounted to 0.022 µM.

`Cc1c(C(=O)NCC2CC2)sc2ncnc(Nc3ccc(F)cc3OC3CCCNC3)c12` (stereo not drawn) [Example 19]: the half-inhibitory concentration (IC50) is 0.047 µM.

In the case of `Cc1c(C(=O)NCC2(O)CCCC2)sc2ncnc(Nc3ccc(F)cc3OC3CCOCC3)c12` [Example 203], the IC50 stood at 0.051 µM.

For the compound `Cc1c(C(=O)NCCn2cccn2)sc2ncnc(Nc3ccc(F)cc3OC3CCOCC3)c12` [Example 183], the IC50 came to 0.051 µM.

As to `Cc1c(C(N)=O)sc2ncnc(Nc3ccc(F)cc3O[C@H]3CCCN(CCO)C3)c12` [Example 6, (S)-4-(4-fluoro-2-(1-(2-hydroxyethyl)piperidin-3-yloxy)phenylamino)-5-methylthieno[2,3-d]pyrimidine-6-carboxamide], the half-inhibitory concentration (IC50) is 0.12 µM.

For the compound `CCNC(=O)c1sc2ncnc(Nc3ccc(F)cc3OC3CCOCC3)c2c1C` [Example 227], the IC50 was 0.047 µM.

Take `Cc1c(C(=O)NCc2ccc3sccc3c2)sc2ncnc(Nc3ccc(F)cc3OC3CCCNC3)c12` (stereo not drawn) [Example 61]: the IC50 is 0.038 µM.

Take `Cc1c(C(=O)NC2(CO)CCCC2)sc2ncnc(Nc3ccc(F)cc3OC3CCOCC3)c12` [Example 225]: the half-maximal inhibitory concentration (IC50) came out at 0.053 µM.

`Cc1c(C(=O)NCCCO)sc2ncnc(Nc3ccc(F)cc3OC3CCOCC3)c12` [Example 152]: the IC50 is 0.04 µM.

As for `Cc1c(C(=O)N[C@H]2C[C@H](N)C2)sc2ncnc(Nc3ccc(F)cc3OC3CCOCC3)c12` [Example 143], the IC50 came to 0.041 µM.

As for `Cc1c(C(=O)NCCCCCN(C)C)sc2ncnc(Nc3ccc(F)cc3OC3CCOCC3)c12` [Example 168], the IC50 turned out to be 0.023 µM.
